Measurements from patent US10336762B2 (priority 2017, dated 2019).

Each compound was assayed on TNFα (assay: cells). Conditions: Homo sapiens, Monocyte, LPS-stimulated human monocytes, TNFα by TR-FRET; read-out: EC50 TNF.
Type: cell-based, human
`CC(C)(O)[C@H](F)CNC(=O)c1cnc(-c2ccc3cc(C#N)cnn23)cc1Nc1cncc(OCC(F)F)c1` [Example 852, (R)-6-(3-cyanopyrrolo[1,2-b]pyridazin-7-yl)-4-((5-(2,2-difluoroethoxy)pyridin-3-yl)amino)-N-(2-fluoro-3-hydroxy-3-methylbutyl) nicotinamide] was tested, and the EC50 was 3 nM.

Same assay, conditions: Homo sapiens, Monocyte, LPS-stimulated human monocytes, TNFα content; read-out: EC50 TNF
Compound `CC(C)(O)[C@H](F)CNC(=O)c1cnc(-c2ccc3cc(C#N)cnn23)cc1Nc1cccc(OC(F)(F)F)c1` [Example 607, (R)-6-(3-cyanopyrrolo[1,2-b]pyridazin-7-yl)-N-(2-fluoro-3-hydroxy-3-methylbu1yl)-4-((3-(trifluoromethoxy)phenyl)amino)nicotinamide] has an EC50 of 1440 nM. Compound `CNC(=O)OC[C@@H]1C[C@H]1Nc1cc(-c2ccc3cc(C#N)cnn23)ncc1C(=O)NC[C@@H](F)C(C)(C)O` [Example 747] has an EC50 of 169 nM. `N#Cc1cnn2c(-c3cc(N[C@H]4CCC[C@@H](O)C4)c(C(=O)NC4CCC(F)(F)CC4)cn3)ccc2c1` [Example 431, 6-(3-cyanopyrrolo[1,2-b]pyridazin-7-yl)-N-(4,4-difluorocyclohexyl)-4-(((1S,3R)-3-hydroxy-cyclohexyl)amino) nicotinamide] gave an EC50 of 441 nM. `CC(C)Nc1cc(-c2ccc3cc(C#N)cnn23)ncc1C(=O)NCCC1COC1` [Example 52, 6-(3-cyanopyrrolo[1,2-b]pyridazin-7-yl)-4-(isopropylamino)-N-(2-(oxetan-3-yl)ethyl) nicotinamide] gave an EC50 of 86 nM. `CC(C)(O)[C@H](F)CNC(=O)c1cnc(-c2ccc3cc(C#N)cnn23)cc1NCCS(C)(=O)=O` [Example 102, (R)-6-(3-cyanopyrrolo[1,2-b]pyridazin-7-yl)-N-(2-fluoro-3-hydroxy-3-methylbutyl)-4-((2-(methylsulfonyl)ethyl)amino) nicotinamide] gave an EC50 of 313 nM. `CC(C)(O)[C@H](F)CNC(=O)c1cnc(-c2ccc3cc(C#N)cnn23)cc1NC1(CO)CC1` [Example 51, (R)-6-(3-cyanopyrrolo[1,2-b]pyridazin-7-yl)-N-(2-fluoro-3-hydroxy-3-methylbutyl)-4-((1-(hydroxymethyl)cyclopropyl)amino)nicotinamide] was tested, and the EC50 was 159 nM. `CC(C)(O)[C@H](F)CNC(=O)c1cnc(-c2ccc3cc(C#N)cnn23)cc1Nc1nc2ccccc2s1` [Example 377] was tested, and the EC50 was 426 nM. In the case of `CC(=O)NCC(F)(F)CNC(=O)c1cnc(-c2ccc3cc(C#N)cnn23)cc1NC(C)C` [Example 551, N-(3-acetamido-2,2-difluoropropyl)-6-(3-cyanopyrrolo[1,2-b]pyridazin-7-yl)-4-(isopropylamino)nicotinamide], the EC50 is reported as 809 nM. With `CNc1cc(-c2ccc3cc(C#N)cnn23)ncc1C(=O)NC[C@@H](F)C(C)(C)O` [Example 379, (R)-6-(3-cyanopyrrolo[1,2-b]pyridazin-7-yl)-N-(2-fluoro-3-hydroxy-3-methylbutyl)-4-(methyl-amino)nicotinamide] the EC50 was 57 nM. `CC(C)(O)[C@H](F)CNC(=O)c1cnc(-c2ccc3cc(C#N)cnn23)cc1NC1CC1` [Example 55, (R)-6-(3-cyanopyrrolo[1,2-b]pyridazin-7-yl)-4-(cyclopropylamino)-N-(2-fluoro-3-hydroxy-3-methylbutyl) nicotinamide] gave an EC50 of 28 nM. Work on `Cn1cc(Nc2cc(-c3ccc4cc(C#N)cnn34)ncc2C(=O)NC[C@@H](F)C(C)(C)O)ccc1=O` [Example 441, (R)-6-(3-cyanopyrrolo[1,2-b]pyridazin-7-yl)-N-(2-fluoro-3-hydroxy-3-methylbutyl)-4-((1-methyl-6-oxo-1,6-dihydropyridin-3-yl)amino)nicotinamide] yielded an EC50 of 1300 nM.

Same assay, conditions: LPS-stimulated human monocytes, TNFα content; read-out: EC50 TNF
In the case of “6-(3-cyanopyrrolo[1,2-b]pyridazin-7-yl)-N-(2-(hydroxymethyl)cyclopropyl)-4-(isopropylamino)nicotinamide [Example 19]”, the EC50 is reported as 926 nM. Compound “(R)-4-((1H-benzo[d][1,2,3] triazol-5-yl)amino)-6-(3- cyanopyrrolo[1,2-b]pyridazin- 7-yl)-N-(2-fluoro-3- hydroxy-3-methylbutyl) nicotinamide [Example 569]” has an EC50 of over 10000 nM.
